Reference: patent US20240404621A1, “THERAPEUTIC DEVELOPMENT PLATFORM COMPRISING VARIANT CAPTURE MAPS AND OTHER VISUALIZATIONS” (The Scripps Research Institute, priority 2021, published 2024)

Legend:
F508del CFTR [1] = target: T1, F508del CFTR (Homo sapiens, UniProt P13569, DEL508-508); assay: steady-state CICon at the cell surface of WT and F508del; assay type: cell-based; details: F508del relative to WT
T1 construct: expressed in transfected cells
Text: (§1) FIG. 2 illustrates an example process of variant spatial profiling (VSP) to generate a phenotype landscape 300 of FIG. 1. VSP uses a sparse collection of variants with known position and phenotypical traits. Each of the variants is positioned on the x-axis by their normalized position in the linear polypeptide sequence, where the full-length chain is assigned a value of 1.0, referred to as the variant sequence position (VarSeqP). The value of a phenotypic feature of each variant's (in this example the trafficking index, TrIdx) to the y-axis. The trafficking index (TrIdx) is the normalized ratio of the fraction of variants exported from the ER relative to the total variant level in the cell, where the value of the WT CFTR TrIdx is assigned a value of 1.0. In this example, the sequence position and TrIdx values are correlated to CFTR chloride conductance (CICon). The normalized CICon is assigned to the z-coordinate, where the value of the WT CFTR CICon is assigned a value of 1.0.
To assess how TrIdx is coupled to CICon at the cell surface in response to ELEXA or TRIKA, we assessed the steady-state CICon at the cell surface of WT and F508del. […] To understand the impact of ELEXA and TRIKA on the SCV relationships spanning the entire CFTR polypeptide, we measured the CICon responses for 64 CF variants. […]

F508del CFTR [2] = target: T1, F508del CFTR; assay: total level and trafficking (TrIdx) of F508del in F508del-CFBE41o− cells; assay type: cell-based
Text: as §1
Referring now to FIG. 13, to address whether the correction of CICon in response to temperature is due to energetic features associated with global SCV relationships responsible for membrane trafficking of CFTR from the ER, we built the VarC map for the CFTR trafficking index (TrIdx) of variants following shift from 37° C. to 27° C. TrIdx quantifies the amount of CFTR in post-ER compartments relative to total CFTR in the cell as a measure of efficiency of ER export. The pairwise-residue based TS/TrIdx-VarC map (FIG. 13, upper left panel) and its corresponding TS/TrIdx-functional-response-structure (FIG. 13, upper second from left panel) reveal that only a limited subset of sequence residues contributes to TrIdx correction upon temperature shift. These include: 1) a sequence region containing F508 (FIG. 13, upper left panel, inset zoom); 2) a region in NBD1 domain including variants L558S, A559T, R560K/T and Y569D that are surrounding the CFTR di-acidic code (YKDAD (residues 563-567)) required for COPII dependent ER export (FIG. 13 upper left panel, inset zoom); 3) a sequence region in ICL4 that is reported by CF variants L1065P and L1077P (13) (FIG. 13, upper left panel, inset zoom). Even though separated in primary sequence, these responding regions cluster together in structure (FIG. 13, upper second from left panel). Overlap of MDC maps and corresponding MDC structures between TS/CICon and TS/TrIdx identifies a common energetic sensitive core (FIG. 13, right side, red) responding to temperature shift for both TrIdx and CICon function. This SCV based energetic sensitive core contains the F508-L1065 covariant link that bridges NBD1 (F508) and ICL4 (L1065) (FIG. 13, right panel, inset zoom, red), mechanistically explaining the previous observation that the NBD1-ICL4 interaction is crippled by F508del.
Consistent with previous results, using F508del-CFBE41o− cells, a bronchial epithelial cell line stably expressing the F508Del CFTR transgene, we found ELEXA alone can increase both the total level and the trafficking efficacy of F508del.
To test whether we can add value to the pairwise-residue networks targeted by TRIKA to improve TRIKA benefit for CF by restoring the lost energetics of the fold in response to F508del affecting the function of di-acidic exit code, we measured the impact of ELEXA and TRIKA impact on F508del at 27° C.

[3] = F508del at 27° C. compared to 37° C.
[4] = F508del-CFBE41o− cells, compound alone

T1 sequence (P13569 with tags, fused parts or gaps DEL508-508): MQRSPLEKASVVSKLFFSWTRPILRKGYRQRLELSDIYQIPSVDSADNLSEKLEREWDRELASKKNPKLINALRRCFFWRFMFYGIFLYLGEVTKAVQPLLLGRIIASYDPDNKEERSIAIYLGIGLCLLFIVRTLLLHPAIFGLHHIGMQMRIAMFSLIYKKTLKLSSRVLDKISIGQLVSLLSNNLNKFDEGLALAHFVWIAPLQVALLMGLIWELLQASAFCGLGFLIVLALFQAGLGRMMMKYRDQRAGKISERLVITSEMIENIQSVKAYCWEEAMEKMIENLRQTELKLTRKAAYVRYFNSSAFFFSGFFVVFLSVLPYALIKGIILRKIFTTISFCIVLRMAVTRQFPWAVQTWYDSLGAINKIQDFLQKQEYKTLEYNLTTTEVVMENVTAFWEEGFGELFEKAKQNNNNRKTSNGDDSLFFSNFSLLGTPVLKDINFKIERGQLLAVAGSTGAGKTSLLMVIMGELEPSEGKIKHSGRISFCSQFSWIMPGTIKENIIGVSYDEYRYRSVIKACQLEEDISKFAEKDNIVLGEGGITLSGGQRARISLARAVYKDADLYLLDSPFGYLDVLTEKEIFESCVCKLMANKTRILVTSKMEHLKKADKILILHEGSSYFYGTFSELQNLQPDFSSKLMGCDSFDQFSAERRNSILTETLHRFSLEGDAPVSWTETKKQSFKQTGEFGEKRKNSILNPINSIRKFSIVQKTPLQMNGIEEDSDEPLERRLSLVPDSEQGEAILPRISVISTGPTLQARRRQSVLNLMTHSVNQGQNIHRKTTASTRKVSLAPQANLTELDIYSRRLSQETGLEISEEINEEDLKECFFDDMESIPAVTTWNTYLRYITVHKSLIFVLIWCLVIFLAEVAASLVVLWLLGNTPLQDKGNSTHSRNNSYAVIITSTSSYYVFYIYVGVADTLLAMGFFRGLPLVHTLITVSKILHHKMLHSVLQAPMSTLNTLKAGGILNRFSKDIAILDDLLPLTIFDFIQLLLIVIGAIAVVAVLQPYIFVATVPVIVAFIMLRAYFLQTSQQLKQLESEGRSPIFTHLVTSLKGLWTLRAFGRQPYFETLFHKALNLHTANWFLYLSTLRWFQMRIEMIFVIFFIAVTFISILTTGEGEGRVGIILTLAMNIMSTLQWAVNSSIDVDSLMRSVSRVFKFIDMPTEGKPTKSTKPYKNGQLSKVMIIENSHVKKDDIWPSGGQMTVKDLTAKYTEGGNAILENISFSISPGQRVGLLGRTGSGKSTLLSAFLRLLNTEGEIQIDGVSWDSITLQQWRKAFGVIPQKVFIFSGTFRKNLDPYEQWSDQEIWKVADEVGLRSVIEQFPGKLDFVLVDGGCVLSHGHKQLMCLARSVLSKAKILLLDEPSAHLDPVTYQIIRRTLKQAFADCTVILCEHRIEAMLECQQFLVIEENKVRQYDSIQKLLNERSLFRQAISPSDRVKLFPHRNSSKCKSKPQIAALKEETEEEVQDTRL

Row | Compound | CICon function for F508del (F508del CFTR [1]) | level of post-ER band C (F508del CFTR [2]; [3]) | total CFTR (F508del CFTR [2]; [3]) | trafficking efficiency (band C relative to total) (F508del CFTR [2]; [3]) | total level of F508del (F508del CFTR [2]; [4]) | trafficking efficacy of F508del (F508del CFTR [2]; [4]) | impact on TrIdx (F508del CFTR [2]; F508del-CFBE41o− cells, IVA added to ELEXA)
1 | Cc1nn(C)cc1S(=O)(=O)NC(=O)c1ccc(-n2ccc(OCC(C)(C)C(F)(F)F)n2)nc1N1C[C@@H](C)CC1(C)C [ELEXA, Elexacaftor] | ~20 % of WT | dramatic improvement | dramatic improvement | dramatic improvement | can increase | can increase | 
2 | CC(C)(C)c1cc(C(C)(C)C)c(NC(=O)c2c[nH]c3ccccc3c2=O)cc1O [IVA, Ivacaftor] |  |  |  |  |  |  | no additional impact
